Measured values taken from patent publication US11180474B2 (BRISTOL-MYERS SQUIBB COMPANY, priority 2016, dated 2021).

Legend:
human TLR7 = target: T1, human TLR7 (Homo sapiens, UniProt Q9NYK1); test: TLR7 inhibition reporter assay (HEK-Blue cells, SEAP reporter, gardiquimod stimulation); type: cell-based; settings: HEK-Blue cells overexpressing human TLR7, gardiquimod 7.5 μM
T1 construct: host or cells: HEK-Blue cells
T1 sequence (Q9NYK1 27-1049): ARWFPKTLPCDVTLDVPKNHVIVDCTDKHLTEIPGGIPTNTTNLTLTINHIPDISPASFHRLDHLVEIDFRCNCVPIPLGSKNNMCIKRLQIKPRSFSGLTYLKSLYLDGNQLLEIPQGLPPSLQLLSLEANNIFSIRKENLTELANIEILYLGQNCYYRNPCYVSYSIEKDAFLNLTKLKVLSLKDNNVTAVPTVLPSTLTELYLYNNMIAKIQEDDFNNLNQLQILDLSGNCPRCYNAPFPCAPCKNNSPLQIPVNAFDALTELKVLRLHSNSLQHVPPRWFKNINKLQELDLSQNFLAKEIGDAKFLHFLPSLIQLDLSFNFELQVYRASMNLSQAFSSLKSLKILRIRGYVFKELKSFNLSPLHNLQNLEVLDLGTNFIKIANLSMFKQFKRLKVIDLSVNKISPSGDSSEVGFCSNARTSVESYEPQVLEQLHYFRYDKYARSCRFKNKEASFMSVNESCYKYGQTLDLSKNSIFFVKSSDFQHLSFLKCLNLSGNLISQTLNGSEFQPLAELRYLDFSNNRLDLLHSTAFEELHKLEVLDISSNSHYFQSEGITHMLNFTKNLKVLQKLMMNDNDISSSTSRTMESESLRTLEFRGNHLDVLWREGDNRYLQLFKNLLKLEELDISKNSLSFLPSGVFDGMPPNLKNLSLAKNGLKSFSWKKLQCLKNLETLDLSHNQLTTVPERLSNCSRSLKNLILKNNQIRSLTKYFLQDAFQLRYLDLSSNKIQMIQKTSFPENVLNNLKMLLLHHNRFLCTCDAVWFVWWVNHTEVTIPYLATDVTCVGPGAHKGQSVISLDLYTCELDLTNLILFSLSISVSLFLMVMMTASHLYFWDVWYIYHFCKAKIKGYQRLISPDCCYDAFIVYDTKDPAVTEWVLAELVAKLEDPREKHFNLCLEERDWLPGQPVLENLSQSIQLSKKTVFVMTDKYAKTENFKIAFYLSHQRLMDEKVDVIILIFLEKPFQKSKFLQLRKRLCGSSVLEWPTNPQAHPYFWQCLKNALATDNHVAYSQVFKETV
Description: (§1) TLR7/8/9 Inhibition Reporter Assays
Briefly, cells are seeded into Greiner 384 well plates (15000 cells per well for TLR7, 20,000 for TLR8 and 25,000 for TLR9) and then treated with test compounds in DMSO to yield a final dose response concentration range of 0.05 nM-50 μM. […] After a 22 hour incubation at 37° C., 5% CO2, SEAP levels are determined with the addition of HEK-Blue™ Detection reagent (Invivogen), a cell culture medium that allows for detection of SEAP, according to manufacturer's specifications. The percent inhibition is determined as the % reduction in the HEK-Blue signal present in wells treated with agonist plus DMSO alone compared to wells treated with a known inhibitor.

human TLR9 = target: T2, human TLR9 (Homo sapiens, UniProt Q9NR96); test: TLR9 inhibition reporter assay (HEK-Blue cells, SEAP reporter, ODN2006 stimulation); type: cell-based; settings: HEK-Blue cells overexpressing human TLR9, ODN2006 5 nM
T2 construct: host or cells: HEK-Blue cells
T2 sequence (Q9NR96 26-1032): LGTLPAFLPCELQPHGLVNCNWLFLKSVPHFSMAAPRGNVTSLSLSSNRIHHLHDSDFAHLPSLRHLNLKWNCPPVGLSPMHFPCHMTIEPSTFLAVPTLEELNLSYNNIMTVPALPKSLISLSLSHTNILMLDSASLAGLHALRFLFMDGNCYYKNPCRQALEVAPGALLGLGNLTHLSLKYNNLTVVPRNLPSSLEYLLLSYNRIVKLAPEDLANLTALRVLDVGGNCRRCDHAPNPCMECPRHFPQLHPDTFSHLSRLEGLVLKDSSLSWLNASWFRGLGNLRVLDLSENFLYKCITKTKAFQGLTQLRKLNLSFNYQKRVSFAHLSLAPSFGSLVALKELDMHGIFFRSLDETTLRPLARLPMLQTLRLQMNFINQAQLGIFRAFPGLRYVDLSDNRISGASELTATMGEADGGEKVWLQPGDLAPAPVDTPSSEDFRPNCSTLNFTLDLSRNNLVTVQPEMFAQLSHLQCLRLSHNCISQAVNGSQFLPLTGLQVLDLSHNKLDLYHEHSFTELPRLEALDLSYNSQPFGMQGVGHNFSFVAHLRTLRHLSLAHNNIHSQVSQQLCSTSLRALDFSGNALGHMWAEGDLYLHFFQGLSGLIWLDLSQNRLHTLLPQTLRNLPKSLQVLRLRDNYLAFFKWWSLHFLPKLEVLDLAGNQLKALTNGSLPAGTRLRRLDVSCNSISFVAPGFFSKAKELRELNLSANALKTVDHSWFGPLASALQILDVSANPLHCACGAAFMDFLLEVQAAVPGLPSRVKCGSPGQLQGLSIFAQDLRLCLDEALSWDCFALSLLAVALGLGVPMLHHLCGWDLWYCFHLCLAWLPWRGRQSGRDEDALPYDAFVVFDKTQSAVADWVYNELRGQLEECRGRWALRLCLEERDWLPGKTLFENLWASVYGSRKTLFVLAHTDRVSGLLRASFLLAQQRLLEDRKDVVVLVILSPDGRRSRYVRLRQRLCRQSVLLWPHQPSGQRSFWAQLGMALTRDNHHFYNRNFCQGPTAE
Description: as §1
HEK-Blue™-cells (Invivogen) overexpressing human TLR7, TLR8 or TLR9 receptors were used for screening inhibitors of these receptors using an inducible SEAP (secreted embryonic alkaline phosphatase) reporter gene under the control of the IFN-β minimal promoter fused to five NF-κB and AP-1-binding sites. Briefly, cells are seeded into Greiner 384 well plates (15000 cells per well for TLR7, 20,000 for TLR8 and 25,000 for TLR9) and then treated with test compounds in DMSO to yield a final dose response concentration range of 0.05 nM-50 μM. After a 30 minute compound pre-treatment at room temperature, the cells are then stimulated with a TLR7 ligand (gardiquimod at a final concentration of 7.5 μM), TLR8 ligand (R848 at a final concentration of 15.9 μM) or TLR9 ligand (ODN2006 at a final concentration of 5 nM) to activate NF-κB and AP-1 which induce the production of SEAP. After a 22 hour incubation at 37° C., 5% CO2, SEAP levels are determined with the addition of HEK-Blue™ Detection reagent (Invivogen), a cell culture medium that allows for detection of SEAP, according to manufacturer's specifications. The percent inhibition is determined as the % reduction in the HEK-Blue signal present in wells treated with agonist plus DMSO alone compared to wells treated with a known inhibitor.

SMILES	IC50 (human TLR7)	IC50 (human TLR9)
COc1ccc(-c2[nH]c3ccc(C4CCN(Cc5cccn5C)CC4)cc3c2C)cc1OC [Example 29, 2-(3,4-dimethoxyphenyl)-3-methyl-5-(1-((1-methyl-1H-pyrrol-2-yl)methyl)piperidin-4-yl)-1H-indole]	1630 nM	787 nM
COc1ccc(-c2[nH]c3ccc(C4CCN(C(C)CN(C)C)CC4)cc3c2C)cc1OC (centres unmarked) [Example 30, 2-(4-(2-(3,4-dimethoxyphenyl)-3-methyl-1H-indol-5-yl)piperidin-1-yl)-N,N-dimethylpropan-1-amine]	666 nM	860 nM
COc1ccc(-c2[nH]c3ccc(C4CCN(Cc5ccc6cnccc6c5)CC4)cc3c2C)cc1OC [Example 31, 6-((4-(2-(3,4-dimethoxyphenyl)-3-methyl-1H-indol-5-yl)piperidin-1-yl)methyl)isoquinoline]	347 nM	225 nM
COc1ccc(-c2[nH]c3ccc(C4CCN(Cc5ccnc6ccccc56)CC4)cc3c2C)cc1OC [Example 32, 4-((4-(2-(3,4-dimethoxyphenyl)-3-methyl-1H-indol-5-yl)piperidin-1-yl)methyl)quinoline]	2480 nM	3590 nM
COc1ccc(-c2[nH]c3ccc(C4CCN(Cc5cc6ccccc6n5C)CC4)cc3c2C)cc1OC [Example 33, 2-(3,4-dimethoxyphenyl)-3-methyl-5-(1-((1-methyl-1H-indol-2-yl)methyl)piperidin-4-yl)-1H-indole]	≥ 50000 nM	3720 nM
COc1ccc(-c2[nH]c3ccc(C4CCN(Cc5ccc(-n6cncn6)cc5)CC4)cc3c2C)cc1OC [Example 34, 5-(1-(4-(1H-1,2,4-triazol-1-yl)benzyl)piperidin-4-yl)-2-(3,4-dimethoxyphenyl)-3-methyl-1H-indole]	673 nM	347 nM
COc1ccc(-c2[nH]c3ccc(C4CCN(Cc5ccc6ccccc6n5)CC4)cc3c2C)cc1OC [Example 35, 2-((4-(2-(3,4-dimethoxyphenyl)-3-methyl-1H-indol-5-yl)piperidin-1-yl)methyl)quinoline]	2680 nM	1430 nM
COc1ccc(-c2[nH]c3ccc(C4CCN(Cc5cccc6cccnc56)CC4)cc3c2C)cc1OC [Example 36, 8-((4-(2-(3,4-dimethoxyphenyl)-3-methyl-1H-indol-5-yl)piperidin-1-yl)methyl)quinoline]	1160 nM	348 nM
COc1ccc(-c2[nH]c3ccc(C4CCN(Cc5ccc(N(C)C)cc5)CC4)cc3c2C)cc1OC [Example 37, 4-((4-(2-(3,4-dimethoxyphenyl)-3-methyl-1H-indol-5-yl)piperidin-1-yl)methyl)-N,N-dimethylaniline]	1050 nM	637 nM
COc1ccc(-c2[nH]c3ccc(C4CCN(Cc5ccc(OCCCN(C)C)cc5)CC4)cc3c2C)cc1OC [Example 38, 3-(4-((4-(2-(3,4-dimethoxyphenyl)-3-methyl-1H-indol-5-yl)piperidin-1-yl)methyl)phenoxy)-N,N-dimethylpropan-1-amine]	663 nM	210 nM
COc1ccc(-c2[nH]c3ccc(C4CCN(Cc5ccc(-n6ccnc6)cc5)CC4)cc3c2C)cc1OC [Example 39, 5-(1-(4-(1H-imidazol-1-yl)benzyl)piperidin-4-yl)-2-(3,4-dimethoxyphenyl)-3-methyl-1H-indole]	1980 nM	251 nM
COc1ccc(-c2[nH]c3ccc(C4CCN(Cc5cncn5C)CC4)cc3c2C)cc1OC [Example 40, 2-(3,4-dimethoxyphenyl)-3-methyl-5-(1-((1-methyl-1H-imidazol-5-yl)methyl)piperidin-4-yl)-1H-indole]	512 nM	2010 nM
COc1ccc(-c2[nH]c3ccc(C4CCN(Cc5csnn5)CC4)cc3c2C)cc1OC [Example 41, 4-((4-(2-(3,4-dimethoxyphenyl)-3-methyl-1H-indol-5-yl)piperidin-1-yl)methyl)-1,2,3-thiadiazole]	2340 nM	3840 nM
COc1ccc(-c2[nH]c3ccc(C4CCN(Cc5ccc(N6CCN(C)CC6)cc5)CC4)cc3c2C)cc1OC [Example 42, 2-(3,4-dimethoxyphenyl)-3-methyl-5-(1-(4-(4-methylpiperazin-1-yl)benzyl)piperidin-4-yl)-1H-indole]	687 nM	120 nM
COc1ccc(-c2[nH]c3ccc(C4CCN(Cc5ccc(N6CCCC6)cc5)CC4)cc3c2C)cc1OC [Example 46, 2-(3,4-dimethoxyphenyl)-3-methyl-5-(1-(4-(pyrrolidin-1-yl)benzyl)piperidin-4-yl)-1H-indole]	3290 nM	746 nM
COc1ccc(-c2[nH]c3ccc(C4CCN(Cc5cccnc5)CC4)cc3c2C)cc1OC [Example 47, 2-(3,4-dimethoxyphenyl)-3-methyl-5-(1-(pyridin-3-ylmethyl)piperidin-4-yl)-1H-indole]	589 nM	1080 nM
CCC(C)CN1CCC(N2CCC(c3ccc4[nH]c(-c5ccc(OC)c(OC)c5)c(C)c4c3)CC2)CC1 (centres unmarked) [Example 51, 2-(3,4-dimethoxyphenyl)-3-methyl-5-(1′-(2-methylbutyl)-[1,4′-bipiperidin]-4-yl)-1H-indole]	240 nM	89 nM
COc1ccc(-c2[nH]c3ccc(C4CCN(C5CCN(CCCSC)CC5)CC4)cc3c2C)cc1OC [Example 53, 2-(3,4-dimethoxyphenyl)-3-methyl-5-(1′-(3-(methylthio)propyl)-[1,4′-bipiperidin]-4-yl)-1H-indole]	188 nM	116 nM
CCC(CC)CN1CCC(N2CCC(c3ccc4[nH]c(-c5ccc(OC)c(OC)c5)c(C)c4c3)CC2)CC1 [Example 54, 2-(3,4-dimethoxyphenyl)-5-(1′-(2-ethylbutyl)-[1,4′-bipiperidin]-4-yl)-3-methyl-1H-indole]	595 nM	238 nM
